Test results reported in the NIST ThermoML archive (doi:10.1021/je900414p).

Test: xn = mol fraction of the nth substance listed
Conditions: Liquid

CCOS(=O)(=O)[O-].CCn1cc[n+](C)c1 [1-ethyl-3-methylimidazolium ethyl sulfate] + CCO
mass density [kg/m3]
Conditions	100 kPa	2500 kPa	5000 kPa	10000 kPa	15000 kPa	20000 kPa	25000 kPa	30000 kPa	35000 kPa
313.15 K, x1 = 0.05056	843.63	845.7	847.81	851.86	855.73	859.44	862.99	866.42	869.72
313.15 K, x1 = 0.103	902	903.78	905.71	909.43	912.99	916.4	919.72	922.91	926.01
313.15 K, x1 = 0.1247	923.22	925.01	926.88	930.46	933.91	937.23	940.45	943.56	946.56
313.15 K, x1 = 0.2126	992.44	994.08	995.74	998.97	1002.07	1005.09	1008.03	1010.88	1013.65
313.15 K, x1 = 0.2919	1041.3	1042.32	1043.83	1046.78	1049.64	1052.42	1055.15	1057.79	1060.38
313.15 K, x1 = 0.3185	1054.58	1055.91	1057.39	1060.28	1063.09	1065.82	1068.49	1071.08	1073.63
313.15 K, x1 = 0.4198	1098.28	1099.64	1101.01	1103.69	1106.3	1108.84	1111.34	1113.78	1116.18
313.15 K, x1 = 0.4847	1120.82	1122.08	1123.39	1125.96	1128.48	1130.94	1133.35	1135.7	1138.01
313.15 K, x1 = 0.5713	1146.49	1147.66	1148.92	1151.37	1153.79	1156.13	1158.44	1160.72	1162.93
313.15 K, x1 = 0.6827	1173.47	1174.61	1175.83	1178.16	1180.44	1182.7	1184.92	1187.08	1189.22
313.15 K, x1 = 0.7919	1195.34	1196.17	1197.31	1199.56	1201.76	1203.92	1206.06	1208.15	1210.22
313.15 K, x1 = 0.9317	1217.11	1218.16	1219.26	1221.43	1223.56	1225.65	1227.71	1229.75	1231.75
323.15 K, x1 = 0.05056	835.32	837.47	839.71	843.97	848.02	851.88	855.6	859.16	862.58
323.15 K, x1 = 0.103	893.98	895.85	897.87	901.75	905.47	909.03	912.49	915.79	919.01
323.15 K, x1 = 0.1247	915.32	917.14	919.07	922.82	926.4	929.85	933.19	936.42	939.53
323.15 K, x1 = 0.2126	984.81	986.48	988.21	991.57	994.8	997.91	1000.95	1003.91	1006.77
323.15 K, x1 = 0.2919	1034.05	1035.04	1036.64	1039.7	1042.66	1045.53	1048.35	1051.07	1053.73
323.15 K, x1 = 0.3185	1047.28	1048.63	1050.16	1053.16	1056.05	1058.87	1061.63	1064.29	1066.91
323.15 K, x1 = 0.4198	1091.13	1092.5	1093.93	1096.7	1099.39	1102.02	1104.58	1107.1	1109.55
323.15 K, x1 = 0.4847	1113.75	1115	1116.36	1119.02	1121.59	1124.12	1126.59	1129.01	1131.39
323.15 K, x1 = 0.5713	1139.53	1140.71	1142.02	1144.55	1147.01	1149.42	1151.81	1154.14	1156.41
323.15 K, x1 = 0.6827	1166.57	1167.74	1168.97	1171.37	1173.72	1176.03	1178.31	1180.52	1182.71
323.15 K, x1 = 0.7919	1188.51	1189.35	1190.5	1192.81	1195.06	1197.29	1199.48	1201.62	1203.73
323.15 K, x1 = 0.9317	1210.34	1211.42	1212.55	1214.78	1216.96	1219.11	1221.21	1223.29	1225.34
333.15 K, x1 = 0.05056	826.91	829.15	831.49	835.97	840.22	844.27	848.14	851.85	855.41
333.15 K, x1 = 0.103	885.77	887.83	889.93	893.99	897.89	901.61	905.17	908.61	911.93
333.15 K, x1 = 0.1247	907.28	909.17	911.19	915.1	918.84	922.44	925.91	929.24	932.47
333.15 K, x1 = 0.2126	977.1	978.86	980.64	984.14	987.5	990.73	993.88	996.92	999.88
333.15 K, x1 = 0.2919	1026.55	1027.68	1029.31	1032.48	1035.56	1038.53	1041.42	1044.25	1046.98
333.15 K, x1 = 0.3185	1039.85	1041.25	1042.83	1045.92	1048.93	1051.83	1054.66	1057.43	1060.13
333.15 K, x1 = 0.4198	1083.92	1085.39	1086.84	1089.7	1092.49	1095.2	1097.84	1100.42	1102.94
333.15 K, x1 = 0.4847	1106.62	1107.91	1109.29	1112.04	1114.72	1117.29	1119.85	1122.34	1124.77
333.15 K, x1 = 0.5713	1132.56	1133.8	1135.1	1137.7	1140.25	1142.73	1145.17	1147.56	1149.9
333.15 K, x1 = 0.6827	1159.67	1160.86	1162.12	1164.6	1167.03	1169.4	1171.73	1174	1176.25
333.15 K, x1 = 0.7919	1181.63	1182.51	1183.7	1186.07	1188.4	1190.67	1192.91	1195.12	1197.28
333.15 K, x1 = 0.9317	1203.54	1204.68	1205.83	1208.1	1210.35	1212.54	1214.7	1216.82	1218.92
343.15 K, x1 = 0.05056	818.25	820.66	823.11	827.83	832.27	836.51	840.54	844.41	848.12
343.15 K, x1 = 0.103	877.67	879.77	881.99	886.23	890.27	894.14	897.85	901.43	904.85
343.15 K, x1 = 0.1247	899.5	901.47	903.69	907.82	911.68	915.39	918.99	922.46	925.77
343.15 K, x1 = 0.2126	969.67	971.48	973.32	976.91	980.38	983.71	986.96	990.09	993.12
343.15 K, x1 = 0.2919	1019.38	1020.57	1022.23	1025.5	1028.64	1031.72	1034.69	1036.01	1040.41
343.15 K, x1 = 0.3185	1032.6	1034.03	1035.67	1038.87	1041.94	1044.93	1047.86	1050.69	1053.46
343.15 K, x1 = 0.4198	1076.98	1078.52	1080	1082.95	1085.8	1088.59	1091.31	1093.96	1096.54
343.15 K, x1 = 0.4847	1099.67	1100.97	1102.41	1105.21	1107.95	1110.61	1113.23	1115.78	1118.28
343.15 K, x1 = 0.5713	1125.7	1126.98	1128.32	1131.01	1133.6	1136.16	1138.67	1141.1	1143.48
343.15 K, x1 = 0.6827	1152.86	1154.1	1155.37	1157.89	1160.38	1162.8	1165.19	1167.53	1169.82
343.15 K, x1 = 0.7919	1175	1175.81	1177.05	1179.48	1181.84	1184.18	1186.47	1188.72	1190.93
343.15 K, x1 = 0.9317	1196.87	1198.02	1199.21	1201.52	1203.82	1206.06	1208.26	1210.44	1212.58
